According to US20050197350A1, “Novel quinoline, tetrahydroquinazoline, and pyrimidine derivatives and methods of treatment related to the use thereof” (TAISHO PHARMACEUTICAL CO., LTD., priority 2003, published 2005):

System: MCH receptors
Assay: MCH receptor activity class (method not given)
[1] = MCH receptor activity class 1-3 (percent of control at 10^-7 M or IC50)
[2] = class by percent of control at 10^-7 M or IC50
[3] = MCH receptor, class by percent of control at 10^-7 M or IC50
[4] = class by percent of control at 10^−7 M or IC50
[5] = class 1-3 by percent of control at 10^-7 M or IC50
[6] = activity class per percent of control at 10^-7 M or IC50

Structure (SMILES): Cc1cc(C)c(NC(=S)N[C@H]2CC[C@@H](Nc3nccc(N(C)C)n3)CC2)c(C)c1 [compound 2320, N-(cis-4-{[4-(dimethylamino)pyrimidin-2-yl]amino}cyclohexyl)-N′-mesitylthiourea]
- class [1]: 1 (Class 1: The value of percent of control at 10^−7 M was less than 40% or the value of IC50 was less than 50 nM.)

Structure (SMILES): CN(C)c1cc(N[C@H]2CC[C@@H](NC(=S)Nc3ccc(C#N)cc3)CC2)nc2ccccc12 [compound 2168]
- class [2]: 3 (Class 3 The value of percent of control at 10^−7 M was more than 60% or the value of IC50 was more than 200 nM.)

Structure (SMILES): Cc1cccc(C(=O)NC[C@H]2CC[C@@H](Nc3cc(N(C)C)c4ccccc4n3)CC2)c1 [compound 177, N-[(cis-4-{[4-(dimethylamino)quinolin-2-yl]amino}cyclohexyl)methyl]-3-methylbenzamide]
- class [3]: 3 (Class 3 The value of percent of control at 10^−7 M was more than 60% or the value of IC50 was more than 200 nM.)

Structure (SMILES): Cc1cccc(C(=O)NC[C@H]2CC[C@@H](Nc3nc4c(c(N(C)C)n3)CCCC4)CC2)c1 [compound 612]
- class [2]: 3 (Class 3 The value of percent of control at 10^−7 M was more than 60% or the value of IC50 was more than 200 nM.)

Structure (SMILES): CN(C)c1cc(N[C@H]2CC[C@@H](CNC(=O)c3ccccc3Br)CC2)nc2ccccc12 [compound 220]
- class [2]: 3 (Class 3 The value of percent of control at 10^−7 M was more than 60% or the value of IC50 was more than 200 nM.)

Structure (SMILES): COc1cccc(C(=O)N[C@H]2CC[C@@H](Nc3nccc(N(C)C)n3)CC2)c1 [compound 238, N-(cis-4-{[4-(dimethylamino)pyrimidin-2-yl]amino}cyclohexyl)-3-methoxybenzamide]
- class [2]: 2 (Class 2: The value of percent of control at 10^−7 M was from 40% to 60% or the value of IC′50 was from 50 nM to 200 nM.)

Structure (SMILES): CN(C)c1nc(N[C@H]2CC[C@@H](NC(=S)Nc3ccc4nsnc4c3)CC2)nc2c1CCCC2 [compound 2084]
- class [3]: 3 (Class 3 The value of percent of control at 10^−7 M was more than 60% or the value of IC50 was more than 200 nM.)

Structure (SMILES): Cc1nc(N[C@H]2CC[C@@H](NC(=O)c3cc(O)nc(O)c3)CC2)nc(N(C)C)c1C [compound 2825]
- class [4]: 3 (Class 3 The value of percent of control at 10^−7 M was more than 60% or the value of IC50 was more than 200 nM.)

Structure (SMILES): CCc1cccc(C)c1NC(=O)N[C@H]1CC[C@@H](Nc2nccc(N(C)C)n2)CC1 [compound 2182]
- class [2]: 3 (Class 3 The value of percent of control at 10^−7 M was more than 60% or the value of IC50 was more than 200 nM.)

Structure (SMILES): CN(C)c1cc(N[C@H]2CC[C@@H](CNC(=O)Cc3ccc(F)cc3)CC2)nc2ccccc12 [compound 195]
- class [3]: 3 (Class 3 The value of percent of control at 10^−7 M was more than 60% or the value of IC50 was more than 200 nM.)

Structure (SMILES): CN(C)c1cc(N[C@H]2CC[C@@H](NC(=O)c3csc(-c4ccc5c(c4)CCO5)n3)CC2)nc2ccccc12 [compound 141]
- class [3]: 3 (Class 3 The value of percent of control at 10^−7 M was more than 60% or the value of IC50 was more than 200 nM.)

Structure (SMILES): Cc1ccc(NC(=O)N[C@H]2CC[C@@H](Nc3nc4c(c(N(C)C)n3)CCCC4)CC2)cc1Cl [compound 1841]
- class [2]: 3 (Class 3 The value of percent of control at 10^−7 M was more than 60% or the value of IC50 was more than 200 nM.)

Structure (SMILES): Cc1cc(C(=O)N[C@H]2CC[C@@H](Nc3nccc(N(C)C)n3)CC2)c(C)o1 [compound 289, N-(cis-4-{[4-(dimethylamino)pyrimidin-2-yl]amino}cyclohexyl)-2,5-dimethyl-3-furamide]
- class [2]: 2 (Class 2: The value of percent of control at 10^−7 M was from 40% to 60% or the value of IC′50 was from 50 nM to 200 nM.)

Structure (SMILES): CCCCCC(=O)N[C@H]1CC[C@@H](Nc2nc3c(c(N(C)C)n2)CCCC3)CC1 [compound 476]
- class [5]: 2 (Class 2: The value of percent of control at 10^−7 M was from 40% to 60% or the value of IC′50 was from 50 nM to 200 nM.)

Structure (SMILES): CN(C)c1nc(N[C@H]2CC[C@@H](NC(=O)c3ccccc3SC(F)F)CC2)nc2c1CCCC2 [compound 518]
- class [5]: 3 (Class 3 The value of percent of control at 10^−7 M was more than 60% or the value of IC50 was more than 200 nM.)

Structure (SMILES): Cc1cc(N(C)C)nc(N[C@H]2CC[C@@H](NC(=O)c3ccc(C#N)cc3)CC2)n1 [compound 2958, 4-cyano-N-(cis-4-{[4-(dimethylamino)-6-methylpyrimidin-2-yl]amino}cyclohexyl)benzamide]
- class [4]: 1 (Class 1: The value of percent of control at 10^−7 M was less than 40% or the value of IC50 was less than 50 nM.)

Structure (SMILES): COc1cc(COC(=O)N[C@H]2CC[C@@H](Nc3cc(N(C)C)c4ccccc4n3)CC2)c([N+](=O)[O-])cc1OC [compound 119]
- class [3]: 3 (Class 3 The value of percent of control at 10^−7 M was more than 60% or the value of IC50 was more than 200 nM.)

Structure (SMILES): CN(C)c1nc(N[C@H]2CC[C@@H](NC(=O)Nc3ccccc3C(F)(F)F)CC2)nc2c1CCCC2 [compound 1666]
- class (activity class 1-3: percent of control at 10^-7 M or IC50): 3 (Class 3 The value of percent of control at 10^−7 M was more than 60% or the value of IC50 was more than 200 nM.)

Structure (SMILES): CN(C)c1ccnc(N[C@H]2CC[C@@H](NC(=O)c3cc(Cl)cc(Cl)c3)CC2)n1 [compound 248]
- class [2]: 1 (Class 1: The value of percent of control at 10^−7 M was less than 40% or the value of IC50 was less than 50 nM.)

Structure (SMILES): CC(C)c1ccccc1NC(=O)NC[C@H]1CC[C@@H](Nc2cc(N(C)C)c3ccccc3n2)CC1 [compound 2380]
- class [1]: 3 (Class 3 The value of percent of control at 10^−7 M was more than 60% or the value of IC50 was more than 200 nM.)

Structure (SMILES): CN(C)c1ccnc(N[C@H]2CC[C@@H](NCc3cncc(-c4ccc(F)cc4)c3)CC2)n1 [compound 1235]
- class [2]: 2 (Class 2: The value of percent of control at 10^−7 M was from 40% to 60% or the value of IC′50 was from 50 nM to 200 nM.)

Structure (SMILES): CN(C)c1cc(N[C@H]2CC[C@@H](NC(=O)c3csc4ccccc34)CC2)nc2ccccc12 [compound 91]
- class [3]: 3 (Class 3 The value of percent of control at 10^−7 M was more than 60% or the value of IC50 was more than 200 nM.)

Structure (SMILES): CN(C)c1nc(N[C@H]2CC[C@@H](NCc3c[nH]nc3-c3ccc(C(F)(F)F)cc3)CC2)nc2c1CCCC2 [compound 1339]
- class [2]: 3 (Class 3 The value of percent of control at 10^−7 M was more than 60% or the value of IC50 was more than 200 nM.)

Structure (SMILES): CN(C)c1cc(N[C@H]2CC[C@@H](NC(=O)C3=Cc4cc(Cl)ccc4OC3)CC2)nc2ccccc12 [compound 143]
- class [3]: 3 (Class 3 The value of percent of control at 10^−7 M was more than 60% or the value of IC50 was more than 200 nM.)

Structure (SMILES): Cc1cnc(N[C@H]2CC[C@@H](C(=O)N3CCc4ccccc4C3)CC2)nc1N(C)C [compound 2793]
- class [4]: 3 (Class 3 The value of percent of control at 10^−7 M was more than 60% or the value of IC50 was more than 200 nM.)

Structure (SMILES): CN(C)c1cc(N[C@H]2CC[C@@H](CNC(=O)Cc3ccccc3Br)CC2)nc2ccccc12 [compound 207]
- class [3]: 3 (Class 3 The value of percent of control at 10^−7 M was more than 60% or the value of IC50 was more than 200 nM.)

Structure (SMILES): CCOc1ccc(C(=O)CC(C(=O)NC[C@H]2CC[C@@H](Nc3nc4c(c(N(C)C)n3)CCCC4)CC2)C2C(=O)N(c3ccccc3)N=C2C)cc1 (relative stereo) [compound 1080]
- class [6]: 3 (Class 3 The value of percent of control at 10^−7 M was more than 60% or the value of IC50 was more than 200 nM.)

Structure (SMILES): Cc1cc(C(=O)NC[C@H]2CC[C@@H](Nc3nc4c(c(N(C)C)n3)CCCC4)CC2)ccc1[N+](=O)[O-] [compound 1076]
- class [6]: 3 (Class 3 The value of percent of control at 10^−7 M was more than 60% or the value of IC50 was more than 200 nM.)

Structure (SMILES): Cc1cc(N(C)C)nc(N[C@H]2CC[C@@H](NC(=O)C(c3ccccc3)c3ccccc3)CC2)n1 [compound 2993, N-(cis-4-{[4-(dimethylamino)-6-methylpyrimidin-2-yl]amino}cyclohexyl)-2,2-diphenylacetamide]
- class [4]: 1 (Class 1: The value of percent of control at 10^−7 M was less than 40% or the value of IC50 was less than 50 nM.)

Structure (SMILES): CCNC(=O)N[C@H]1CC[C@@H](Nc2nc3c(c(N(C)C)n2)CCCC3)CC1 [compound 1825]
- class [2]: 3 (Class 3 The value of percent of control at 10^−7 M was more than 60% or the value of IC50 was more than 200 nM.)

Structure (SMILES): CN(C)c1nc(N[C@H]2CC[C@@H](NC(=S)NCCCCc3ccccc3)CC2)nc2c1CCCC2 [compound 2064]
- class [3]: 3 (Class 3 The value of percent of control at 10^−7 M was more than 60% or the value of IC50 was more than 200 nM.)

Structure (SMILES): CN(C)c1ccnc(N[C@H]2CC[C@@H](NC(=O)c3csc(-c4cccs4)n3)CC2)n1 [compound 364, N-(cis-4-{[4-(dimethylamino)pyrimidin-2-yl]amino}cyclohexyl)-2-(2-thienyl)-1,3-thiazole-4-carboxamide]
- class [2]: 1 (Class 1: The value of percent of control at 10^−7 M was less than 40% or the value of IC50 was less than 50 nM.)

Structure (SMILES): Cc1cc(N(C)C)nc(N[C@H]2CC[C@@H](NC(=O)c3ccc(F)cc3)CC2)n1 [compound 2990, N-(cis-4-{[4-(dimethylamino)-6-methylpyrimidin-2-yl]amino}cyclohexyl)-4-fluorobenzamide]
- class [4]: 1 (Class 1: The value of percent of control at 10^−7 M was less than 40% or the value of IC50 was less than 50 nM.)

Structure (SMILES): CCOC(=O)c1cccc(NC(=S)N[C@H]2CC[C@@H](Nc3nccc(N(C)C)n3)CC2)c1 [compound 2338]
- class [1]: 3 (Class 3 The value of percent of control at 10^−7 M was more than 60% or the value of IC50 was more than 200 nM.)

Structure (SMILES): CN(C)c1cc(N[C@H]2CC[C@@H](CNC(=O)C(c3ccccc3)c3ccccc3)CC2)nc2ccccc12 [compound 159, N-[(cis-4-{[4-(dimethylamino)quinolin-2-yl]amino}cyclohexyl)methyl]-2,2-diphenylacetamide]
- class [3]: 2 (Class 2: The value of percent of control at 10^−7 M was from 40% to 60% or the value of IC′50 was from 50 nM to 200 nM.)

Structure (SMILES): CN(C)c1cc(N[C@H]2CC[C@@H](NC(=O)c3ccc(F)c(Cl)c3F)CC2)nc2ccccc12 [compound 62, 3-chloro-N-(cis-4-{[4-(dimethylamino)quinolin-2-yl]amino}cyclohexyl)-2,4-difluorobenzamide]
- class [3]: 2 (Class 2: The value of percent of control at 10^−7 M was from 40% to 60% or the value of IC′50 was from 50 nM to 200 nM.)
